Experimental findings from patent publication US20100173912A1, “Novel Compound” (priority 2007, published 2010) are described below.

The target in the test is T1, human mGluR5b (Homo sapiens, UniProt P41594).
T1 construct: expressed in transfected cells; host or cells: CHO cells, pSwitch vector (Invitrogen), expression induced with mifepristone
The test is described as follows: FLIPR positive modulator assay in CHO cells expressing human mGluR5b. It is filed as cell-based. The settings on record: FLIPR second read after EC20 glutamate, normalised to EC20 (basal) and EC100 (total) glutamate response, read-out: pEC50 in the human mGluR5b positive modulator assay (converted). The procedure:
CHO cells expressing human mGluR5b (pSwitch vector, Invitrogen) were maintained in DMEM media with 10% Foetal Calf Serum, 0.005% Hygromycin, Proline(10 mg/mL), Zeocin(0.005%). The media was replaced between subculturing days to remove any excess glutamate build up that may cause receptor desensitization. 24 hrs prior to conducting the assay, cells were plated in 384-well black flat clear bottom plates and mGluR5 expression was induced with the addition of 0.01 nM mifepristone. The plates were incubated at 37° C. to give a monolayer with a confluency of 80%.
The tissue culture medium was aspirated using a Tecan power washer. Cells were loaded with 30 μl of Hanks Balanced Salts (HBSS)+[…]+2 μM Fluo-4+250 μM Brilliant Black+0.01% Pluronic acid. The cells were incubated at 37° C. for 2 hours to allow uptake of the dye Fluo-4AM into the cell cytosol, which was converted to Fluo-4 by natural esterases cleaving the AM region preventing the Fluo-4 leaving the cell. […]
A 0.38 M solution of glutamic acid was prepared in water. […] A fluorescent reading was made. […] A second fluorescent read was made. […]
The compound was added ‘on line’ to the cells and a first FLIPR read was made to estimate agonism. The cell plates were then incubated at 37° C. for 5-10 min after which the chosen EC20 Glutamate was added ‘on line’ and a second FLIPR reading made to estimate modulation. […]

Each structure is given as a SMILES string.

T1 sequence (P41594 21-1212): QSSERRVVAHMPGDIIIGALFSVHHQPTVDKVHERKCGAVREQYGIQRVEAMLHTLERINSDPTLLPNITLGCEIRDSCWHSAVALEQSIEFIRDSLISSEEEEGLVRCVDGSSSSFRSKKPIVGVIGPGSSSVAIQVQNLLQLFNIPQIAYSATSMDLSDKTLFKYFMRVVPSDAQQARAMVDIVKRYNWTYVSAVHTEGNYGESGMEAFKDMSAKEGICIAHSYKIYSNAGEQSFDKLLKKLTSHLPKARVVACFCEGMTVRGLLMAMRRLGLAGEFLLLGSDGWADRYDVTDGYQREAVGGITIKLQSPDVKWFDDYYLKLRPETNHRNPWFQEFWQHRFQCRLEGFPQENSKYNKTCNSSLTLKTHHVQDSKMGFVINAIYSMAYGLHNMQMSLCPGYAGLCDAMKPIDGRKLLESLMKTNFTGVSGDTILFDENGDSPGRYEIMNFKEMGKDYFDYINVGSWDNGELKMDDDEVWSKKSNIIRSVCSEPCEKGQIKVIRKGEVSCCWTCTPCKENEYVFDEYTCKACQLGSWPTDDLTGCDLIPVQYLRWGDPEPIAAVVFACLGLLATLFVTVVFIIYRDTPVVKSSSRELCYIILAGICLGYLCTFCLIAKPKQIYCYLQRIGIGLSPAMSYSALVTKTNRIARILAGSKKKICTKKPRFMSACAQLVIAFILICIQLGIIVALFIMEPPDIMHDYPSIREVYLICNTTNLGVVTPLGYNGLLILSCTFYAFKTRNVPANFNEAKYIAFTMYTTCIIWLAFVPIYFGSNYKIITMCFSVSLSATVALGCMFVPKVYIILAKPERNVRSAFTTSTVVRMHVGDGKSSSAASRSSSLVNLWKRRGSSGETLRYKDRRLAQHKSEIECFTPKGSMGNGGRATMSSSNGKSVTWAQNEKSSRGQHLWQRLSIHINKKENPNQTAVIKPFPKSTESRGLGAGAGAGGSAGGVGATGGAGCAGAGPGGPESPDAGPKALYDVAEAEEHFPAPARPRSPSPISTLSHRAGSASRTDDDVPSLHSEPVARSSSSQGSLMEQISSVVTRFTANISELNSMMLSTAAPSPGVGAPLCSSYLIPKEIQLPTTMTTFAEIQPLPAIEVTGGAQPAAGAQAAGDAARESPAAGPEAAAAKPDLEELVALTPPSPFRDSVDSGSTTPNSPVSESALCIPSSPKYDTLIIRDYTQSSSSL

On to `N#Cc1cc(F)ccc1N1CCN(C(=O)COCc2ccc(F)cc2)CC1` [5-fluoro-2-[4-({[(4-fluorophenyl)methyl]oxy}acetyl)-1-piperazinyl]benzonitrile], for which the EC50 was < 1000 nM.
